# Test results reported in patent US20110250135A1, “Piperazine Derivatives for Binding and Imaging Amyloid Plaques and Their Use” (Bayer Schering Pharma Aktiengesellschaft, priority 2008, published 2011).
# Experiments:
# [1] = Biodistribution: organ distribution of F-18 signal in mice; format: in vivo, male NMRI mice; settings: for Organ distribution of F-18 signal, intestine: intestine (with content); for Organ distribution of F-18 signal, stomach: stomach (without content)
# Experimental: Biodistribution and excretion studies were performed in male NMRI mice (body weight app. 30g; 3 animals per time point). The animals were kept under normal laboratory conditions at a temperature of 22±2° C. and a dark/light rhythm of 12 hours. Food and water were provided ad libitium. During an acclimation period of at least 3 days before the beginning of the study animals were clinically examined to ascertain the absence of abnormal clinical signs. At 2, 5, 30, 60, 240 min post intravenous injection via the tail vein of ca. 150 kBq in 100 μl of the test compound, urine and feces were quantitatively collected. At the same time points, animals were sacrificed by decapitation and under isoflurane anaesthesia and the following organs and tissues were removed for the determination of radioactivity using a gamma-counter: spleen, liver, kidney, lung, femur, heart, brain, fat, thyroid, muscle, skin, blood, tail, stomach (without content), testicle, intestine (with content), pancreas, adrenals, and the remaining body. For analysis the decay corrected percentage of the injected dose per tissue weight (% ID/g±standard deviation) was calculated.
# Aβ plaques = biological target: T1, Aβ plaques (Homo sapiens, UniProt P05067); experiment: Autoradiographical analysis of binding to cryosections from cortex of AD patients and controls; settings: F-18 labeled compound; Alzheimer's disease patients (AD) vs controls without Aβ plaques
# T1 construct: controls without Aβ plaques; from tissue; host or cells: frontal lobe / cortex sections (frozen and paraffin) from AD patients, FTD patients and age-matched controls
# T1 sequence (P05067 672-713 limits assumed): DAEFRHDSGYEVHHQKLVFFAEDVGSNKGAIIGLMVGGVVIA
# Excerpt: Fresh frozen as well as paraffin embedded sections of the frontal lobe from Alzheimer's dementia patients, frontotemporal dementia patients and age matched controls were used for the study. Frozen sections, sliced at 18 μm thickness on a cryostate (Leica, Germany) and paraffin sections, sliced on a sliding microtom (Leica) at a thickness of 6 μm, were mounted onto glass slides (Superfrost Plus, Fa.Menzel, Braunschweig Germany). Frozen sections were allowed to adhere to the slides for several nights at −20° C. The paraffin sections were deparaffinized using routine histological methods. For binding studies sections were incubated with the F-18 labeled test compound at 10 Bq/μl diluted in 25 mM Hepes buffer, pH 7.4, 0.1% (BSA) (200-300 μl/slide) for 1.5 hour at room temperature in a humidified chamber. For blocking experiments a 1000-fold access of the unlabeled test substance was added to the incubation mixture. After hybridization, sections were washed four times with Hepes buffer, 0.1% BSA (or alternatively two times with 40% ethanol) and finally dipped two times into dest. water for 10 sec. The air-dried sections were exposed to imaging plates and signals were detected by a phosphoimager device (Fuji BAS5000).
smiles,measurement,setting,value
"O=C(NCC(=O)N1CCN(c2ccc(OCc3ccccc3)cc2)CC1)c1ccc([18F])nc1 [Example 10e, N-{2-[4-(4-Benzyloxy-phenyl)-piperazin-1-yl]-2-oxoethyl}-6-[F-18]-fluoro-nicotinamide]","Organ distribution of F-18 signal, adrenals",[1]; 2 min post i.v. injection,7.86 % ID/g
same,"Organ distribution of F-18 signal, adrenals",[1]; 5 min post i.v. injection,6.20 % ID/g
same,"Organ distribution of F-18 signal, adrenals",[1]; 30 min post i.v. injection,2.36 % ID/g
same,"Organ distribution of F-18 signal, adrenals",[1]; 60 min post i.v. injection,0.67 % ID/g
same,"Organ distribution of F-18 signal, adrenals",[1]; 240 min post i.v. injection,0.43 % ID/g
same,"Organ distribution of F-18 signal, blood",[1]; 2 min post i.v. injection,2.01 % ID/g
same,"Organ distribution of F-18 signal, blood",[1]; 5 min post i.v. injection,1.98 % ID/g
same,"Organ distribution of F-18 signal, blood",[1]; 30 min post i.v. injection,1.38 % ID/g
same,"Organ distribution of F-18 signal, blood",[1]; 60 min post i.v. injection,0.55 % ID/g
same,"Organ distribution of F-18 signal, blood",[1]; 240 min post i.v. injection,0.09 % ID/g
same,"Organ distribution of F-18 signal, brain",[1]; 2 min post i.v. injection,4.99 % ID/g
same,"Organ distribution of F-18 signal, brain",[1]; 5 min post i.v. injection,4.33 % ID/g
same,"Organ distribution of F-18 signal, brain",[1]; 30 min post i.v. injection,1.44 % ID/g
same,"Organ distribution of F-18 signal, brain",[1]; 60 min post i.v. injection,0.44 % ID/g
same,"Organ distribution of F-18 signal, brain",[1]; 240 min post i.v. injection,0.04 % ID/g
same,"Organ distribution of F-18 signal, fat",[1]; 2 min post i.v. injection,1.79 % ID/g
same,"Organ distribution of F-18 signal, fat",[1]; 5 min post i.v. injection,2.66 % ID/g
same,"Organ distribution of F-18 signal, fat",[1]; 30 min post i.v. injection,1.95 % ID/g
same,"Organ distribution of F-18 signal, fat",[1]; 60 min post i.v. injection,0.67 % ID/g
same,"Organ distribution of F-18 signal, fat",[1]; 240 min post i.v. injection,0.15 % ID/g
same,"Organ distribution of F-18 signal, femur",[1]; 2 min post i.v. injection,1.44 % ID/g
same,"Organ distribution of F-18 signal, femur",[1]; 5 min post i.v. injection,1.53 % ID/g
same,"Organ distribution of F-18 signal, femur",[1]; 30 min post i.v. injection,1.15 % ID/g
same,"Organ distribution of F-18 signal, femur",[1]; 60 min post i.v. injection,1.43 % ID/g
same,"Organ distribution of F-18 signal, femur",[1]; 240 min post i.v. injection,1.75 % ID/g
same,"Organ distribution of F-18 signal, heart",[1]; 2 min post i.v. injection,5.18 % ID/g
same,"Organ distribution of F-18 signal, heart",[1]; 5 min post i.v. injection,4.49 % ID/g
same,"Organ distribution of F-18 signal, heart",[1]; 30 min post i.v. injection,1.85 % ID/g
same,"Organ distribution of F-18 signal, heart",[1]; 60 min post i.v. injection,0.69 % ID/g
same,"Organ distribution of F-18 signal, heart",[1]; 240 min post i.v. injection,0.11 % ID/g
same,"Organ distribution of F-18 signal, intestine",[1]; 2 min post i.v. injection,2.13 % ID/g
same,"Organ distribution of F-18 signal, intestine",[1]; 5 min post i.v. injection,2.40 % ID/g
same,"Organ distribution of F-18 signal, intestine",[1]; 30 min post i.v. injection,8.20 % ID/g
same,"Organ distribution of F-18 signal, intestine",[1]; 60 min post i.v. injection,10.63 % ID/g
same,"Organ distribution of F-18 signal, intestine",[1]; 240 min post i.v. injection,6.90 % ID/g
same,"Organ distribution of F-18 signal, kidney",[1]; 2 min post i.v. injection,8.58 % ID/g
same,"Organ distribution of F-18 signal, kidney",[1]; 5 min post i.v. injection,7.92 % ID/g
same,"Organ distribution of F-18 signal, kidney",[1]; 30 min post i.v. injection,6.29 % ID/g
same,"Organ distribution of F-18 signal, kidney",[1]; 60 min post i.v. injection,2.61 % ID/g
same,"Organ distribution of F-18 signal, kidney",[1]; 240 min post i.v. injection,0.50 % ID/g
same,"Organ distribution of F-18 signal, liver",[1]; 2 min post i.v. injection,7.44 % ID/g
same,"Organ distribution of F-18 signal, liver",[1]; 5 min post i.v. injection,12.02 % ID/g
same,"Organ distribution of F-18 signal, liver",[1]; 30 min post i.v. injection,9.60 % ID/g
same,"Organ distribution of F-18 signal, liver",[1]; 60 min post i.v. injection,5.27 % ID/g
same,"Organ distribution of F-18 signal, liver",[1]; 240 min post i.v. injection,2.29 % ID/g
same,"Organ distribution of F-18 signal, lung",[1]; 2 min post i.v. injection,4.31 % ID/g
same,"Organ distribution of F-18 signal, lung",[1]; 5 min post i.v. injection,3.86 % ID/g
same,"Organ distribution of F-18 signal, lung",[1]; 30 min post i.v. injection,1.93 % ID/g
same,"Organ distribution of F-18 signal, lung",[1]; 60 min post i.v. injection,0.89 % ID/g
same,"Organ distribution of F-18 signal, lung",[1]; 240 min post i.v. injection,0.10 % ID/g
same,"Organ distribution of F-18 signal, muscle",[1]; 2 min post i.v. injection,2.40 % ID/g
same,"Organ distribution of F-18 signal, muscle",[1]; 5 min post i.v. injection,2.07 % ID/g
same,"Organ distribution of F-18 signal, muscle",[1]; 30 min post i.v. injection,1.16 % ID/g
same,"Organ distribution of F-18 signal, muscle",[1]; 60 min post i.v. injection,0.34 % ID/g
same,"Organ distribution of F-18 signal, muscle",[1]; 240 min post i.v. injection,0.06 % ID/g
same,"Organ distribution of F-18 signal, pancreas",[1]; 2 min post i.v. injection,4.59 % ID/g
same,"Organ distribution of F-18 signal, pancreas",[1]; 5 min post i.v. injection,4.54 % ID/g
same,"Organ distribution of F-18 signal, pancreas",[1]; 30 min post i.v. injection,2.27 % ID/g
same,"Organ distribution of F-18 signal, pancreas",[1]; 60 min post i.v. injection,0.92 % ID/g
same,"Organ distribution of F-18 signal, pancreas",[1]; 240 min post i.v. injection,1.07 % ID/g
same,"Organ distribution of F-18 signal, skin",[1]; 2 min post i.v. injection,1.37 % ID/g
same,"Organ distribution of F-18 signal, skin",[1]; 5 min post i.v. injection,1.76 % ID/g
same,"Organ distribution of F-18 signal, skin",[1]; 30 min post i.v. injection,1.39 % ID/g
same,"Organ distribution of F-18 signal, skin",[1]; 60 min post i.v. injection,0.51 % ID/g
same,"Organ distribution of F-18 signal, skin",[1]; 240 min post i.v. injection,0.08 % ID/g
same,"Organ distribution of F-18 signal, spleen",[1]; 2 min post i.v. injection,1.96 % ID/g
same,"Organ distribution of F-18 signal, spleen",[1]; 5 min post i.v. injection,1.99 % ID/g
same,"Organ distribution of F-18 signal, spleen",[1]; 30 min post i.v. injection,1.08 % ID/g
same,"Organ distribution of F-18 signal, spleen",[1]; 60 min post i.v. injection,0.35 % ID/g
same,"Organ distribution of F-18 signal, spleen",[1]; 240 min post i.v. injection,0.06 % ID/g
same,"Organ distribution of F-18 signal, stomach",[1]; 2 min post i.v. injection,3.69 % ID/g
same,"Organ distribution of F-18 signal, stomach",[1]; 5 min post i.v. injection,2.84 % ID/g
same,"Organ distribution of F-18 signal, stomach",[1]; 30 min post i.v. injection,2.40 % ID/g
same,"Organ distribution of F-18 signal, stomach",[1]; 60 min post i.v. injection,1.09 % ID/g
same,"Organ distribution of F-18 signal, stomach",[1]; 240 min post i.v. injection,0.50 % ID/g
same,"Organ distribution of F-18 signal, tail",[1]; 2 min post i.v. injection,8.65 % ID/g
same,"Organ distribution of F-18 signal, tail",[1]; 5 min post i.v. injection,6.65 % ID/g
same,"Organ distribution of F-18 signal, tail",[1]; 30 min post i.v. injection,1.86 % ID/g
same,"Organ distribution of F-18 signal, tail",[1]; 60 min post i.v. injection,1.00 % ID/g
same,"Organ distribution of F-18 signal, tail",[1]; 240 min post i.v. injection,0.69 % ID/g
same,"Organ distribution of F-18 signal, testicle",[1]; 2 min post i.v. injection,1.53 % ID/g
same,"Organ distribution of F-18 signal, testicle",[1]; 5 min post i.v. injection,1.81 % ID/g
same,"Organ distribution of F-18 signal, testicle",[1]; 30 min post i.v. injection,1.28 % ID/g
same,"Organ distribution of F-18 signal, testicle",[1]; 60 min post i.v. injection,0.52 % ID/g
same,"Organ distribution of F-18 signal, testicle",[1]; 240 min post i.v. injection,0.06 % ID/g
same,"Organ distribution of F-18 signal, thyroid",[1]; 2 min post i.v. injection,2.51 % ID/g
same,"Organ distribution of F-18 signal, thyroid",[1]; 5 min post i.v. injection,2.62 % ID/g
same,"Organ distribution of F-18 signal, thyroid",[1]; 30 min post i.v. injection,1.26 % ID/g
same,"Organ distribution of F-18 signal, thyroid",[1]; 60 min post i.v. injection,0.56 % ID/g
same,"Organ distribution of F-18 signal, thyroid",[1]; 240 min post i.v. injection,0.35 % ID/g
same,autoradiographical analysis of binding to cryosections from cortex,Aβ plaques,Specific binding in plaque-rich regions of AD samples
